The record followed here is patent US7939534B2, “Certain chemical entities, compositions, and methods” (Cytokinetics, Inc., priority 2006, dated 2011).

This test concerns the target T1, chicken gizzard smooth muscle myosin subfragment-1 chemically crosslinked to either cardiac or skeletal actin (Gallus gallus, UniProt P10587).
T1 construct: chicken gizzard smooth muscle myosin subfragment-1; from tissue; host or cells: chicken gizzard
Briefly: Dose dependent smooth muscle myosin ATPase modulation (pyruvate kinase/horseradish peroxidase/pyruvate oxidase-coupled ATPase assay). The class given is biochemical. The following applies: read-out: IC50 Arithmetic Mean. As to the method:
In Vitro Model of Dose Dependent Smooth Muscle Myosin Atpase Modulation
Screening assays were performed using a pyruvate kinase and lactate dehydrogenase-coupled ATPase assay containing the following reagents: Potassium PIPES (50 mM ), MgCl2 (3 mM ), KCl (100 mM ), ATP (0.15 mM ), DTT (1 mM ), BSA (0.1 mg/ml), NADH (0.5 mM ), PEP (1.5 mM ), pyruvate kinase (4 U/ml), lactate dehydrogenase (8 U/ml), and antifoam (50 ppm) (concentrations expressed are final assay concentrations). The pH was adjusted to 6.80 at 22° C. by addition of potassium hydroxide. Lead optimization assays were performed with a more sensitive pyruvate kinase/horseradish peroxidase/pyruvate oxidase-coupled ATPase assay containing the following reagents: Potassium PIPES (12 mM ), MgCl2 (2 mM ), KCl (100 mM ), ATP (0.15 mM ), BSA (0.05 mg/ml), potassium phosphate (2 mM ), amplex red (0.1 mM ), PEP (0.1 mM ), pyruvate kinase (4 U/ml), horseradish peroxidase (0.5 U/ml), pyruvate oxidase (0.5 U/ml), and antifoam (50 ppm) (concentrations expressed are final assay concentrations). The pH was adjusted to 7.00 at 22° C. by addition of potassium hydroxide.
The protein components specific to this assay are chicken gizzard smooth muscle myosin subfragment-1 that has been chemically crosslinked to either cardiac or skeletal actin using an excess of 1-Ethyl-3-[3-dimethylaminopropyl]carbodiimide hydrochloride and N-hydroxysuccinimide. The exact concentration of the crosslinked smooth muscle myosin in the assay is determined empirically, by titration to achieve a desired rate of ATP hydrolysis. The concentration varies between protein preparations due to variations in the fraction of active molecules in each preparation.
Compound dose response assays are performed by first preparing a dilution series of test compound, each with an assay mixture containing potassium PIPES, MgCl2, KCl, ATP, BSA, potassium phosphate, amplex red, PEP, crosslinked smooth muscle actomyosin (subfragment-1), antifoam, and water. The assay is started by adding an equal volume of solution containing potassium Pipes, MgCl2, KCl, BSA, potassium phosphate, pyruvate kinase, horseradish peroxidase, pyruvate oxidase, antifoam, and water. ATP hydrolysis is monitored by measuring the fluorescence of amplex red (excitation at 480 nm, emission at 615 nm). The resulting dose response curve is fit by the 4 parameter equation y=Bottom+((Top−Bottom)/(1+((IC50/X)^Hill))). The IC50 is defined as the concentration at which ATPase activity is midway between the top and bottom of the dose response curve.

What is called IC50 is the concentration needed to halve the response being measured.

With `CNC(=O)CNC(=O)c1ccc(N2CC[C@H](O)C2)nc1NCCc1cccc(F)c1` [Compound 89, 2-[(6-((3S)-3-hydroxypyrrolidinyl)-2-{[2-(3-fluorophenyl)ethyl]amino}(3-pyridyl))carbonylamino]-N-methylacetamide], the IC50 amounted to 8250 nM. For `O=C(NCc1cccnc1)c1ccc(C2=NCCN2)nc1NCCc1cccc(F)c1` [Compound 73, (2-{[2-(3-fluorophenyl)ethyl]amino}-6-(2-imidazolin-2-yl)(3-pyridyl))-N-(3-pyridylmethyl)carboxamide] the value was 56400 nM; for `O=C(NCc1cccnc1)c1ccc(N2CCC[C@@H]2CO)nc1NCCc1cccc(F)c1` [Compound 88, (6-[(2R)-2-(hydroxymethyl)pyrrolidinyl]-2-{[2-(3-fluorophenyl)ethyl]amino}(3-pyridyl))-N-(3-pyridylmethyl)carboxamide], 10500 nM. On to `CNC(=O)CNC(=O)c1ccc(N2CCCC2)nc1NCCc1cccc(F)c1` [Compound 28, 2-[(2-{[2-(3-fluorophenyl)ethyl]amino}-6-pyrrolidinyl(3-pyridyl))carbonylamino]-N-methylacetamide], for which the IC50 stood at 329 nM. The figure for `NC(=O)CCNC(=O)c1ccc(N2CCCC2)nc1NCCc1cccc(F)c1` [Compound 13, N-(2-carbamoylethyl)(2-{[2-(3-fluorophenyl)ethyl]amino}-6-pyrrolidinyl(3-pyridyl))carboxamide] is 1590 nM; for `CNC(=O)C1CCN(c2ccc(C(=O)NCc3cccnc3)c(NCCc3cccc(F)c3)n2)CC1` [Compound 114, (2-{[2-(3-fluorophenyl)ethyl]amino}-6-[4-(N-methylcarbamoyl)piperidyl](3-pyridyl))-N-(3-pyridylmethyl)carboxamide] it is 11000 nM. Take `O=C(NCc1cccnc1)c1ccc(C2CCCC2)nc1NCCc1cccc(F)c1` [Compound 59, (6-cyclopentyl-2-{[2-(3-fluorophenyl)ethyl]amino}(3-pyridyl))-N-(3-pyridylmethyl)carboxamide]: the half-maximal inhibitory concentration (IC50) was 4410 nM. For “N-{[(2R)-1-(4-aminobutanoyl)pyrrolidin-2-yl]methyl}(5-fluoro-2-{[2-(3-fluorophenyl)ethyl]amino}-6-pyrrolidinyl(3-pyridyl))carboxamide [Compound 74]” the value was 308 nM. As for `CN(C)C(=O)c1ccc(N2CC[C@@H](O)C2)nc1NCCc1cccc(F)c1` [Compound 4, (6-((3R)-3-hydroxypyrrolidinyl)-2-{[2-(3-fluorophenyl)ethyl]amino}(3-pyridyl))-N,N-dimethylcarboxamide], the IC50 was 71300 nM. As to `NCc1ncccc1CNC(=O)c1ccc(C2=CCCC2)nc1NCCc1cccc(F)c1` [Compound 37, N-{[2-(aminomethyl)(3-pyridyl)]methyl}(6-cyclopent-1-enyl-2-{[2-(3-fluorophenyl)ethyl]amino}(3-pyridyl))carboxamide], the IC50 amounted to 14.6 nM. Take `O=C(NCc1cccnc1)c1ccc(N2CC[C@H](F)C2)nc1NCCc1cccc(F)c1` [Compound 113, (6-((3S)-3-fluoropyrrolidinyl)-2-{[2-(3-fluorophenyl)ethyl]amino}(3-pyridyl))-N-(3-pyridylmethyl)carboxamide]: the half-maximal inhibitory concentration (IC50) was determined as 431 nM. For `CCOC(=O)C1CCN(c2ccc(C(=O)NCc3cccnc3)c(NCCc3cccc(F)c3)n2)CC1` [Compound 112, ethyl 1-(6-{[2-(3-fluorophenyl)ethyl]amino}-5-[N-(3-pyridylmethyl)carbamoyl]-2-pyridyl)piperidine-4-carboxylate] the value was 1560 nM; for `NCCCN1C(=O)CC[C@@H]1CNC(=O)c1cc(F)c(N2CCCC2)nc1NCCc1cccc(F)c1` [Compound 52, N-{[(2R)-1-(3-aminopropyl)-5-oxopyrrolidin-2-yl]methyl}(5-fluoro-2-{[2-(3-fluorophenyl)ethyl]amino}-6-pyrrolidinyl(3-pyridyl))carboxamide], 119 nM; for `O=C(NCc1cccnc1)c1ccc(N2CCC(F)(F)C2)nc1NCCc1cccc(F)c1` [Compound 100, (6-(3,3-difluoropyrrolidinyl)-2-{[2-(3-fluorophenyl)ethyl]amino}(3-pyridyl))-N-(3-pyridylmethyl)carboxamide], 274 nM. In the case of `O=C(NCc1cccnc1)c1ccc(N2CCNCC2)nc1NCCc1cccc(F)c1` [Compound 116, (2-{[2-(3-fluorophenyl)ethyl]amino}-6-piperazinyl(3-pyridyl))-N-(3-pyridylmethyl)carboxamide], the concentration for half-maximal inhibition (IC50) worked out at 31800 nM. With `COC(=O)N1CCN(c2ccc(C(=O)NCc3cccnc3)c(NCCc3cccc(F)c3)n2)CC1` [Compound 85, methyl 4-(6-{[2-(3-fluorophenyl)ethyl]amino}-5-[N-(3-pyridylmethyl)carbamoyl]-2-pyridyl)piperazinecarboxylate], the IC50 came out at 1530 nM. For `CC(=O)N1CCN(c2ccc(C(=O)NCc3cccnc3)c(NCCc3cccc(F)c3)n2)CC1` [Compound 123, (6-(4-acetylpiperazinyl)-2-{[2-(3-fluorophenyl)ethyl]amino}(3-pyridyl))-N-(3-pyridylmethyl)carboxamide] the value was 8570 nM. For `O=C(NCc1cccnc1)c1ccc(C2=CCC3(CC2)OCCO3)nc1NCCc1cccc(F)c1` [Compound 60, (6-(1,4-dioxaspiro[4.5]dec-7-en-8-yl)-2-{[2-(3-fluorophenyl)ethyl]amino}(3-pyridyl))-N-(3-pyridylmethyl)carboxamide] the value was 1820 nM; for `NCc1ncccc1CNC(=O)c1ccc(N2CCCC2)nc1NCCc1cccc(F)c1` [Compound 41, N-{[2-(aminomethyl)(3-pyridyl)]methyl}(2-{[2-(3-fluorophenyl)ethyl]amino}-6-pyrrolidinyl(3-pyridyl))carboxamide], 29.7 nM.

As for `Nc1ccc(CNC(=O)c2ccc(N3CCCC3)nc2NCCc2cccc(F)c2)cn1` [Compound 12, N-[(6-amino(3-pyridyl))methyl](2-{[2-(3-fluorophenyl)ethyl]amino}-6-pyrrolidinyl(3-pyridyl))carboxamide], the concentration for half-maximal inhibition (IC50) was found to be 243 nM. The figure for `CNC(=O)CNC(=O)c1ccc(N2CCC(F)C2)nc1NCCc1cccc(F)c1` (stereo in doubt) [Compound 93, 2-[(6-((3S)-3-fluoropyrrolidinyl)-2-{[2-(3-fluorophenyl)ethyl]amino}(3-pyridyl))carbonylamino]-N-methylacetamide] is 1060 nM; for `NCc1ncccc1CNC(=O)c1cc(F)c(N2CC[C@@H](O)C2)nc1NCCc1cccc(F)c1` [Compound 55, (6-((3R)-3-hydroxypyrrolidinyl)-5-fluoro-2-{[2-(3-fluorophenyl)ethyl]amino}(3-pyridyl))-N-{[2-(aminomethyl)(3-pyridyl)]methyl}carboxamide] it is 125 nM; for `N[C@@H]1CCN(c2ccc(C(=O)NCc3cccnc3)c(NCCc3cccc(F)c3)n2)C1` [Compound 46, (6-((3R)-3-aminopyrrolidinyl)-2-{[2-(3-fluorophenyl)ethyl]amino}(3-pyridyl))-N-(3-pyridylmethyl)carboxamide] it is 35500 nM.

With `O=C(NCc1cccnc1)c1ccc(N2CC=CC2)nc1NCCc1cccc(F)c1` [Compound 29, (2-{[2-(3-fluorophenyl)ethyl]amino}-6-(3-pyrrolinyl)(3-pyridyl))-N-(3-pyridylmethyl)carboxamide], the IC50 amounted to 154 nM. The figure for `O=C(NCc1cccnc1)c1ccc(N2CCCC(O)C2)nc1NCCc1cccc(F)c1` (stereo in doubt) [Compound 117, (6-((3S)-3-hydroxypiperidyl)-2-{[2-(3-fluorophenyl)ethyl]amino}(3-pyridyl))-N-(3-pyridylmethyl)carboxamide] is 515 nM; for “N-{[(2R)-1-(2-aminoacetyl)pyrrolidin-2-yl]methyl}(5-fluoro-2-{[2-(3-fluorophenyl)ethyl]amino}-6-pyrrolidinyl(3-pyridyl))carboxamide [Compound 76]” it is 212 nM.

With `O=C(NCc1cccnc1)c1ccc(C2=NCCO2)nc1NCCc1cccc(F)c1` [Compound 35, (2-{[2-(3-fluorophenyl)ethyl]amino}-6-(1,3-oxazolin-2-yl)(3-pyridyl))-N-(3-pyridylmethyl)carboxamide], the IC50 turned out to be 1500 nM.
